≈ marks a conversion by molar mass, not a printed value.
Columns and labels:
Format in all cases: functional
Escherichia coli = experiment: Antibacterial activity against Escherichia coli after 18 to 22 hrs by […]
Proteus vulgaris = experiment: Antibacterial activity against Proteus vulgaris after 18 to 22 hrs by […]
Klebsiella aerogenes = experiment: Antibacterial activity against Enterobacter aerogenes after 18 to 22 hrs by […]
Klebsiella pneumoniae = experiment: Antibacterial activity against Klebsiella pneumoniae after 18 to 22 hrs by […]
Staphylococcus aureus = experiment: Antibacterial activity against Staphylococcus aureus after 18 to 22 hrs by […]
Staphylococcus warneri = experiment: Antibacterial activity against Staphylococcus warneri after 18 to 22 hrs by […]
Streptococcus pyogenes = experiment: Antibacterial activity against Streptococcus pyogenes after 18 to 22 hrs by […]
Enterococcus faecalis = experiment: Antibacterial activity against Enterococcus faecalis after 18 to 22 hrs by […]
Candida albicans = experiment: Antifungal activity against 10 strains of Candida albicans after 24 hrs by […]
Pichia kudriavzevii = experiment: Antifungal activity against 3 strains of Candida krusei after 24 hrs by […]
Candida parapsilosis = experiment: Antifungal activity against 4 strains of Candida parapsilosis after 24 hrs by […]; settings: Lodderomyces parapsilosis
[Candida] sake = Antifungal activity against 2 strains of Candida sake after 24 hrs by […]; settings: Fermentozyma sake
Nakaseomyces glabratus = experiment: Antifungal activity against 4 strains of Candida glabrata after 24 hrs by […]
Candida tropicalis = experiment: Antifungal activity against 4 strains of Candida tropicalis after 24 hrs by […]

| Structure (SMILES) | MIC (Escherichia coli) | MIC (Proteus vulgaris) | MIC (Klebsiella aerogenes) | MIC (Klebsiella pneumoniae) | MIC (Staphylococcus aureus) | MIC (Staphylococcus warneri) | MIC (Streptococcus pyogenes) | MIC (Enterococcus faecalis) | MIC (Candida albicans) | MIC (Pichia kudriavzevii) | MIC (Candida parapsilosis) | MIC ([Candida] sake) | MIC (Nakaseomyces glabratus) | MIC (Candida tropicalis) |
| --- | --- | --- | --- | --- | --- | --- | --- | --- | --- | --- | --- | --- | --- | --- |
| Ic1ccc(-c2csc(NN=C3CCCC3)n2)cc1 | > 128 µg/mL | 32 µg/mL (≈ 83.5 µM) | > 128 µg/mL | > 128 µg/mL | 32 µg/mL (≈ 83.5 µM) | 8 µg/mL (≈ 20.9 µM) | 8 µg/mL (≈ 20.9 µM) | 8 µg/mL (≈ 20.9 µM) | 2 µg/mL (≈ 5.22 µM) | 2 µg/mL (≈ 5.22 µM) | 2 µg/mL (≈ 5.22 µM) | 32 µg/mL (≈ 83.5 µM) | 2 µg/mL (≈ 5.22 µM) | 0.5 µg/mL (≈ 1.3 µM) |
| Ic1ccc(-c2csc(NN=C3CCCCC3)n2)cc1 | > 128 µg/mL | > 128 µg/mL | > 128 µg/mL | > 128 µg/mL | 32 µg/mL (≈ 80.5 µM) | 32 µg/mL (≈ 80.5 µM) | 8 µg/mL (≈ 20.1 µM) | 32 µg/mL (≈ 80.5 µM) | 0.5 µg/mL (≈ 1.26 µM) | 2 µg/mL (≈ 5.03 µM) | 2 µg/mL (≈ 5.03 µM) | 16 µg/mL (≈ 40.3 µM) | 2 µg/mL (≈ 5.03 µM) | 2 µg/mL (≈ 5.03 µM) |
| CC1CCCC/C1=N\Nc1nc(-c2ccc(I)cc2)cs1 (stereo unspecified) | 16 µg/mL (≈ 38.9 µM) | > 128 µg/mL | > 128 µg/mL | 32 µg/mL (≈ 77.8 µM) | 8 µg/mL (≈ 19.4 µM) | 4 µg/mL (≈ 9.72 µM) | 8 µg/mL (≈ 19.4 µM) | 8 µg/mL (≈ 19.4 µM) | 0.25 µg/mL (≈ 0.608 µM) | 128 µg/mL (≈ 311 µM) | 2 µg/mL (≈ 4.86 µM) | 128 µg/mL (≈ 311 µM) | 2 µg/mL (≈ 4.86 µM) | 0.5 µg/mL (≈ 1.22 µM) |
| CC1CCC/C(=N\Nc2nc(-c3ccc(I)cc3)cs2)C1 (stereo unspecified) | > 128 µg/mL | > 128 µg/mL | > 128 µg/mL | > 128 µg/mL | 32 µg/mL (≈ 77.8 µM) | 4 µg/mL (≈ 9.72 µM) | 4 µg/mL (≈ 9.72 µM) | 8 µg/mL (≈ 19.4 µM) | 2 µg/mL (≈ 4.86 µM) | 128 µg/mL (≈ 311 µM) | 2 µg/mL (≈ 4.86 µM) | 128 µg/mL (≈ 311 µM) | 4 µg/mL (≈ 9.72 µM) | 2 µg/mL (≈ 4.86 µM) |
| CC1CCC(=NNc2nc(-c3ccc(I)cc3)cs2)CC1 (stereo unspecified) | > 128 µg/mL | > 128 µg/mL | > 128 µg/mL | > 128 µg/mL | 32 µg/mL (≈ 77.8 µM) | 32 µg/mL (≈ 77.8 µM) | 2 µg/mL (≈ 4.86 µM) | 4 µg/mL (≈ 9.72 µM) | 0.5 µg/mL (≈ 1.22 µM) | 64 µg/mL (≈ 156 µM) | 2 µg/mL (≈ 4.86 µM) | 64 µg/mL (≈ 156 µM) | 2 µg/mL (≈ 4.86 µM) | 2 µg/mL (≈ 4.86 µM) |
| Ic1ccc(-c2csc(NN=C3CCCCCC3)n2)cc1 | 16 µg/mL (≈ 38.9 µM) | 16 µg/mL (≈ 38.9 µM) | 16 µg/mL (≈ 38.9 µM) | > 128 µg/mL | > 128 µg/mL | > 128 µg/mL | 32 µg/mL (≈ 77.8 µM) | 32 µg/mL (≈ 77.8 µM) | 0.25 µg/mL (≈ 0.608 µM) | 64 µg/mL (≈ 156 µM) | 2 µg/mL (≈ 4.86 µM) | 64 µg/mL (≈ 156 µM) | 2 µg/mL (≈ 4.86 µM) | 0.5 µg/mL (≈ 1.22 µM) |
| Ic1ccc(-c2csc(N/N=C/c3ccco3)n2)cc1 | 32 µg/mL (≈ 81 µM) | 16 µg/mL (≈ 40.5 µM) | 32 µg/mL (≈ 81 µM) | 32 µg/mL (≈ 81 µM) | > 128 µg/mL | > 128 µg/mL | 32 µg/mL (≈ 81 µM) | 32 µg/mL (≈ 81 µM) | 0.5 µg/mL (≈ 1.27 µM) | 64 µg/mL (≈ 162 µM) | 2 µg/mL (≈ 5.06 µM) | 64 µg/mL (≈ 162 µM) | 4 µg/mL (≈ 10.1 µM) | 2 µg/mL (≈ 5.06 µM) |
| C/C(=N\Nc1nc(-c2ccc(I)cc2)cs1)c1ccco1 | > 128 µg/mL | > 128 µg/mL | > 128 µg/mL | > 128 µg/mL | 32 µg/mL (≈ 78.2 µM) | 32 µg/mL (≈ 78.2 µM) | 2 µg/mL (≈ 4.89 µM) | 8 µg/mL (≈ 19.5 µM) | 0.25 µg/mL (≈ 0.611 µM) | 128 µg/mL (≈ 313 µM) | 2 µg/mL (≈ 4.89 µM) | 128 µg/mL (≈ 313 µM) | 2 µg/mL (≈ 4.89 µM) | 0.5 µg/mL (≈ 1.22 µM) |
| Ic1ccc(-c2csc(N/N=C/c3cccs3)n2)cc1 | > 128 µg/mL | > 128 µg/mL | > 128 µg/mL | > 128 µg/mL | 32 µg/mL (≈ 77.8 µM) | 32 µg/mL (≈ 77.8 µM) | 2 µg/mL (≈ 4.86 µM) | 32 µg/mL (≈ 77.8 µM) | 2 µg/mL (≈ 4.86 µM) | 128 µg/mL (≈ 311 µM) | 2 µg/mL (≈ 4.86 µM) | 128 µg/mL (≈ 311 µM) | 4 µg/mL (≈ 9.73 µM) | 2 µg/mL (≈ 4.86 µM) |
| C/C(=N\Nc1nc(-c2ccc(I)cc2)cs1)c1cccs1 | > 128 µg/mL | > 128 µg/mL | > 128 µg/mL | > 128 µg/mL | 32 µg/mL (≈ 75.2 µM) | 32 µg/mL (≈ 75.2 µM) | > 128 µg/mL | > 128 µg/mL | 2 µg/mL (≈ 4.7 µM) | 2 µg/mL (≈ 4.7 µM) | 0.5 µg/mL (≈ 1.18 µM) | 4 µg/mL (≈ 9.4 µM) | 4 µg/mL (≈ 9.4 µM) | 2 µg/mL (≈ 4.7 µM) |
| C/C(=N\Nc1nc(-c2ccc(I)cc2)cs1)c1ccccn1 | > 128 µg/mL | > 128 µg/mL | > 128 µg/mL | 32 µg/mL (≈ 76.1 µM) | 32 µg/mL (≈ 76.1 µM) | > 128 µg/mL | > 128 µg/mL | > 128 µg/mL | 0.25 µg/mL (≈ 0.595 µM) | 64 µg/mL (≈ 152 µM) | 2 µg/mL (≈ 4.76 µM) | 64 µg/mL (≈ 152 µM) | 2 µg/mL (≈ 4.76 µM) | 0.5 µg/mL (≈ 1.19 µM) |
| Ic1ccc(-c2csc(N/N=C/c3cccnc3)n2)cc1 | 16 µg/mL (≈ 39.4 µM) | > 128 µg/mL | 16 µg/mL (≈ 39.4 µM) | > 128 µg/mL | 32 µg/mL (≈ 78.8 µM) | > 128 µg/mL | 32 µg/mL (≈ 78.8 µM) | 32 µg/mL (≈ 78.8 µM) | 2 µg/mL (≈ 4.92 µM) | 64 µg/mL (≈ 158 µM) | 2 µg/mL (≈ 4.92 µM) | 64 µg/mL (≈ 158 µM) | 4 µg/mL (≈ 9.85 µM) | 2 µg/mL (≈ 4.92 µM) |
| C/C(=N\Nc1nc(-c2ccc(I)cc2)cs1)c1cccnc1 | 32 µg/mL (≈ 76.1 µM) | 16 µg/mL (≈ 38.1 µM) | > 128 µg/mL | 32 µg/mL (≈ 76.1 µM) | > 128 µg/mL | > 128 µg/mL | 32 µg/mL (≈ 76.1 µM) | 32 µg/mL (≈ 76.1 µM) | 0.25 µg/mL (≈ 0.595 µM) | 64 µg/mL (≈ 152 µM) | 2 µg/mL (≈ 4.76 µM) | 64 µg/mL (≈ 152 µM) | 2 µg/mL (≈ 4.76 µM) | 0.5 µg/mL (≈ 1.19 µM) |
| Ic1ccc(-c2csc(N/N=C/c3ccncc3)n2)cc1 | > 128 µg/mL | > 128 µg/mL | > 128 µg/mL | > 128 µg/mL | 32 µg/mL (≈ 78.8 µM) | 32 µg/mL (≈ 78.8 µM) | 2 µg/mL (≈ 4.92 µM) | 2 µg/mL (≈ 4.92 µM) | 0.25 µg/mL (≈ 0.615 µM) | 128 µg/mL (≈ 315 µM) | 2 µg/mL (≈ 4.92 µM) | 128 µg/mL (≈ 315 µM) | 2 µg/mL (≈ 4.92 µM) | 0.5 µg/mL (≈ 1.23 µM) |
| CC(C)(O/N=C(\C(=O)N[C@@H]1C(=O)N2C(C(=O)[O-])=C(C[n+]3ccccc3)CS[C@H]12)c1csc(N)n1)C(=O)O [CEFTAZIDIME] | 4 µg/mL (≈ 7.32 µM) | 2 µg/mL (≈ 3.66 µM) | 2 µg/mL (≈ 3.66 µM) | 2 µg/mL (≈ 3.66 µM) | 0.5 µg/mL (≈ 0.915 µM) | 0.5 µg/mL (≈ 0.915 µM) | 0.5 µg/mL (≈ 0.915 µM) | 0.5 µg/mL (≈ 0.915 µM) |  |  |  |  |  |  |
| OC(Cn1cncn1)(Cn1cncn1)c1ccc(F)cc1F [FLUCONAZOLE] |  |  |  |  |  |  |  |  | 4 µg/mL (≈ 13.1 µM) | 4 µg/mL (≈ 13.1 µM) | 4 µg/mL (≈ 13.1 µM) | 4 µg/mL (≈ 13.1 µM) | 4 µg/mL (≈ 13.1 µM) | 4 µg/mL (≈ 13.1 µM) |
| COC1=CC(=O)C[C@@H](C)[C@]12Oc1c(Cl)c(OC)cc(OC)c1C2=O [GRISEOFULVIN] |  |  |  |  |  |  |  |  | 8 µg/mL (≈ 22.7 µM) | 8 µg/mL (≈ 22.7 µM) | 8 µg/mL (≈ 22.7 µM) | 8 µg/mL (≈ 22.7 µM) | 8 µg/mL (≈ 22.7 µM) | 8 µg/mL (≈ 22.7 µM) |

Source: ChEMBL document CHEMBL2034842, “Synthesis, anti-Candida activity, and cytotoxicity of new (4-(4-iodophenyl)thiazol-2-yl)hydrazine derivatives” (Eur J Med Chem, 2012)
